{
  "source": "patent US20250360167A1",
  "about": "(Keryx Biopharmaceuticals, Inc., priority 2013, published 2025)",
  "assay_type_in_all_cases": "in vivo, human",
  "key": {"[1]": {"system": "ferritin", "test": "Phase 3 trial (Example 1): ferritin", "set-up": "Ferritin, Mean / Ferritin, Median / Ferritin, Change from Baseline, Mean / Ferritin, Change from Baseline, Median / Ferritin, LS Mean: unit not given here", "settings": "for Ferritin, Mean / Ferritin, Median / Ferritin, LS Mean / Ferritin, Change from Baseline, Mean / Ferritin, Change from Baseline, Median / Ferritin, Treatment Differences, LS Mean (KRX-0502) − LS Mean (control), (SE): Table 15", "source_text": "Iron studies including serum iron, ferritin, TSAT, and total iron-binding capacity were done at Screening (Visit 0); at the Randomization Visit (Visit 4); at Visits 7 (Week 4), 9 (Week 8), 11 (Week 12), 12 (Week 16), 13 (Week 20), 14 (Week 24), 15 (Week 28), 16 (Week 32), 17 (Week 36), 18 (Week 40), 19 (Week 44), 20 (Week 48), and 21 (Week 52) of the 52-week Safety Assessment Period; and at Visit 25 (Week 56) of the Efficacy Assessment Period.\nChange from baseline in ferritin at Week 52 as compared to baseline (Visit 4). This variable will be analyzed using LOCF methodology. ANCOVA will be employed. The model will include treatment (fixed effect), and baseline (covariate). A sensitivity analysis will be performed using MMRM method.\n• 1. Change in serum calcium concentration at Weeks 12, 24, 36, 48, and 52 as compared to baseline (Visit 4). This variable will be analyzed using LOCF methodology. ANCOVA will be employed. The model will include treatment (fixed effect), and baseline (covariate). • 2. Change in ferritin, and TSAT at Weeks 12, 24, 36 and 48 as compared to baseline (Visit 4). This variable will be analyzed using LOCF methodology. ANCOVA will be employed. The model will include treatment (fixed effect), and baseline (covariate). • 3. Change in serum iron and TIBC at Weeks 12, 24, 36, 48, and 52 as compared to baseline (Visit 4). This variable will be analyzed using LOCF methodology. ANCOVA will be employed. The model will include treatment (fixed effect), and baseline (covariate). • 4. Change in Ca x P product at Weeks 12, 24, 36, 48, and 52 as compared to baseline (Visit 4). This variable will be analyzed using LOCF methodology. ANCOVA will be employed. The model will include treatment (fixed effect), and baseline (covariate). • 5. Change in iPTH at Weeks 12, 36, 52, and 56 as compared to baseline (Visit 4). This variable will be analyzed using LOCF methodology. ANCOVA will be employed. The model will include treatment (fixed effect), and baseline (covariate). • 6. Change in serum […], vitamin A, vitamin B-12, vitamin E, vitamin K and folic acid at Weeks 12, 36, and 52 as compared to baseline (Visit 4). This variable will be analyzed using LOCF methodology. ANCOVA will be employed. The model will include treatment (fixed effect), and baseline (covariate). • 7. Change in serum bicarbonate concentration at Weeks 12, 36, and 52 as compared to baseline (Visit 4). This variable will be analyzed using LOCF methodology. ANCOVA will be employed. The model will include treatment (fixed effect), and baseline (covariate). • 8. Change in IV iron intake at Weeks 12, 24, 36, 48, and 52 as compared to baseline (Visit 4). This variable will be analyzed using LOCF methodology. ANCOVA will be employed. The model will include treatment (fixed effect), and baseline (covariate). • 9. Change in the use of EPO (ESA) administered at Weeks 12, 24, 36, 48, and 52 as compared to baseline (Visit 4). This variable will be analyzed using LOCF methodology. ANCOVA will be employed. The model will include treatment (fixed effect), and baseline (covariate). • 10. Change in the use of Vitamin D supplementation (and its analogs) and Sensipar (cinacalcet) at Weeks 12, 24, 36, 48, and 52 as compared to baseline (Visit 4). This variable will be analyzed using LOCF methodology. ANCOVA will be employed. The model will include treatment (fixed effect), and baseline (covariate). • 11. Change in LDL, HDL, and triglycerides at Weeks 12, 36, and 52 as compared to baseline (Visit 4). This variable will be analyzed using LOCF methodology. ANCOVA will be employed. The model will include treatment (fixed effect), and baseline (covariate)."}, "[2]": {"system": "intact fibroblast growth factor 23 (FGF23)", "test": "Phase 2 trial (Example 2): intact FGF-23", "settings": "n = 63", "method": "Change in calcium x phosphorus product, serum calcium, estimated glomerular filtration rate (eGFR), urinary phosphorus, bicarbonate levels, serum iron, UIBC, TIBC, iPTH, and intact fibroblast growth factor 23 (FGF23) from baseline (Visit 4, Week 0) to the end of treatment (Visit 11, Week 12) are also assessed as secondary endpoints.\n(§1) The key secondary endpoints of the study were the mean changes in ferritin, hemoglobin and FGF-23 from baseline to the end of the 12-week treatment period versus placebo in the ITT group."}, "[3]": {"system": "C-Terminal FGF-23", "test": "Phase 2 trial (Example 2): C-terminal FGF-23", "settings": "n = 63", "source_text": "as §1"}, "[4]": {"settings": "Day 0 Baseline, Safety Assessment Period"}, "[5]": {"settings": "Week 12, last observation carried forward"}},
  "data": [
    {"substance": "iron (+3), x (1, 2, 3-propanetricarboxylic acid, 2-hydroxy-), y (H2O) [KRX-0502]", "values": [
      {"measurement": "Mean Ferritin, LS Mean Difference from Active Control Group at Week 52", "setting": "[1]; ANCOVA, Table C", "value": 286, "unit": "ng/mL"},
      {"measurement": "Mean Ferritin", "setting": "[1]; Baseline (Day 0), Table C", "value": 595, "unit": "ng/mL"},
      {"measurement": "Ferritin, Mean", "setting": "[1]; [4]", "value": 595.00},
      {"measurement": "Ferritin, Median", "setting": "[1]; [4]", "value": 587.00},
      {"measurement": "Mean Ferritin, Change from Baseline at Week 52", "setting": "[1]; Table C", "value": 302, "unit": "ng/mL"},
      {"measurement": "Ferritin, LS Mean", "setting": "[1]; Week 12, ANCOVA", "value": 757.75},
      {"measurement": "Mean Ferritin", "setting": "[1]; Week 12, LOCF, Table C", "value": 751, "unit": "ng/mL"},
      {"measurement": "Ferritin, Change from Baseline, Mean", "setting": "[1]; Week 12", "value": 158.88},
      {"measurement": "Ferritin, Change from Baseline, Median", "setting": "[1]; Week 12", "value": 123.00},
      {"measurement": "Ferritin, Mean", "setting": "[1]; Week 12", "value": 751.19},
      {"measurement": "Ferritin, Median", "setting": "[1]; Week 12", "value": 718.00},
      {"measurement": "Ferritin, Treatment Differences, LS Mean (KRX-0502) − LS Mean (control), (SE)", "setting": "[1]; Week 12", "value": "112.95 (29.36)"},
      {"measurement": "Ferritin, LS Mean", "setting": "[1]; Week 24, ANCOVA", "value": 852.52},
      {"measurement": "Mean Ferritin", "setting": "[1]; Week 24, LOCF, Table C", "value": 847, "unit": "ng/mL"},
      {"measurement": "Ferritin, Change from Baseline, Mean", "setting": "[1]; Week 24", "value": 252.49},
      {"measurement": "Ferritin, Change from Baseline, Median", "setting": "[1]; Week 24", "value": 220.00},
      {"measurement": "Ferritin, Mean", "setting": "[1]; Week 24", "value": 846.90},
      {"measurement": "Ferritin, Median", "setting": "[1]; Week 24", "value": 830.00},
      {"measurement": "Ferritin, Treatment Differences, LS Mean (KRX-0502) − LS Mean (control), (SE)", "setting": "[1]; Week 24", "value": "204.43 (32.84)"},
      {"measurement": "Ferritin, LS Mean", "setting": "[1]; Week 36, ANCOVA", "value": 868.11},
      {"measurement": "Mean Ferritin", "setting": "[1]; Week 36, LOCF, Table C", "value": 863, "unit": "ng/mL"},
      {"measurement": "Ferritin, Change from Baseline, Mean", "setting": "[1]; Week 36", "value": 268.77},
      {"measurement": "Ferritin, Change from Baseline, Median", "setting": "[1]; Week 36", "value": 223.00},
      {"measurement": "Ferritin, Mean", "setting": "[1]; Week 36", "value": 863.18},
      {"measurement": "Ferritin, Median", "setting": "[1]; Week 36", "value": 818.00},
      {"measurement": "Ferritin, Treatment Differences, LS Mean (KRX-0502) − LS Mean (control), (SE)", "setting": "[1]; Week 36", "value": "241.24 (38.27)"},
      {"measurement": "Ferritin, LS Mean", "setting": "[1]; Week 48, ANCOVA", "value": 887.41},
      {"measurement": "Mean Ferritin", "setting": "[1]; Week 48, LOCF, Table C", "value": 882, "unit": "ng/mL"},
      {"measurement": "Ferritin, Change from Baseline, Mean", "setting": "[1]; Week 48", "value": 287.69},
      {"measurement": "Ferritin, Change from Baseline, Median", "setting": "[1]; Week 48", "value": 233.00},
      {"measurement": "Ferritin, Mean", "setting": "[1]; Week 48", "value": 882.10},
      {"measurement": "Ferritin, Median", "setting": "[1]; Week 48", "value": 850.00},
      {"measurement": "Ferritin, Treatment Differences, LS Mean (KRX-0502) − LS Mean (control), (SE)", "setting": "[1]; Week 48", "value": "270.56 (39.85)"},
      {"measurement": "Ferritin, LS Mean", "setting": "[1]; Week 52, ANCOVA", "value": 901.95},
      {"measurement": "Mean Ferritin", "setting": "[1]; Week 52, LOCF, Table C", "value": 897, "unit": "ng/mL"},
      {"measurement": "Ferritin, Change from Baseline, Mean", "setting": "[1]; Week 52", "value": 302.11},
      {"measurement": "Ferritin, Change from Baseline, Median", "setting": "[1]; Week 52", "value": 224.00},
      {"measurement": "Ferritin, Mean", "setting": "[1]; Week 52", "value": 897.12},
      {"measurement": "Ferritin, Median", "setting": "[1]; Week 52", "value": 858.00},
      {"measurement": "Ferritin, Treatment Differences, LS Mean (KRX-0502) − LS Mean (control), (SE)", "setting": "[1]; Week 52", "value": "285.65 (42.76)"},
      {"measurement": "Mean Ferritin, % Change from Baseline", "setting": "[1]; Week 52, Table C", "value": 50.8, "unit": "%"},
      {"measurement": "Mean Intact FGF-23, Baseline", "setting": "[2]; Baseline", "value": 319, "unit": "pg/mL"},
      {"measurement": "Mean Intact FGF-23, End of Treatment (Week 12)", "setting": "[2]; [5]", "value": 200, "unit": "pg/mL"},
      {"measurement": "Mean C-Terminal FGF-23, Baseline", "setting": "[3]; Baseline", "value": 468, "unit": "pg/mL"},
      {"measurement": "Mean C-Terminal FGF-23, End of Treatment (Week 12)", "setting": "[3]; [5]", "value": 316, "unit": "pg/mL"}
    ]}
  ]
}
